NC(=O)c1ccc([N+](=O)[O-])cc1
solubility (mole fraction)
Conditions | 283.15 K | 288.15 K | 293.15 K | 298.15 K | 303.15 K | 308.15 K | 313.15 K | 318.15 K | 323.15 K | 328.15 K
in DMF | 0.037 | 0.0416 | 0.0492 | 0.0576 | 0.0691 | 0.0811 | 0.0945 | 0.109 | 0.123 | 0.139
in DMSO | – | – | 0.0372 | 0.0425 | 0.0504 | 0.0613 | 0.0747 | 0.0888 | 0.103 | 0.117
in NMP | 0.0418 | 0.0472 | 0.0549 | 0.0653 | 0.0775 | 0.0917 | 0.108 | 0.125 | 0.144 | 0.169
in acetonitrile | 0.000628 | 0.000806 | 0.000994 | 0.00126 | 0.00155 | 0.00195 | 0.00232 | 0.0028 | 0.00332 | 0.00396
in ethanol | 0.00157 | 0.00182 | 0.00231 | 0.00287 | 0.00351 | 0.00429 | 0.00513 | 0.00616 | 0.00735 | 0.00882
in ethyl acetate | 0.00203 | 0.00236 | 0.00286 | 0.00376 | 0.00471 | 0.00583 | 0.00706 | 0.0086 | 0.0103 | 0.0122
in ethylene glycol | 0.00356 | 0.00417 | 0.00496 | 0.006 | 0.00719 | 0.00873 | 0.0102 | 0.0119 | 0.0138 | 0.0164
in isobutanol | 0.000751 | 0.000942 | 0.00119 | 0.0015 | 0.00187 | 0.00233 | 0.00286 | 0.00342 | 0.00403 | 0.00467
in isopropanol | 0.00127 | 0.0015 | 0.00185 | 0.0023 | 0.00286 | 0.00341 | 0.00408 | 0.00492 | 0.00579 | 0.00677
in n-butanol | 0.000449 | 0.000554 | 0.000712 | 0.000907 | 0.00116 | 0.00144 | 0.00176 | 0.00213 | 0.00253 | 0.00301
in n-propanol | 0.00096 | 0.00119 | 0.00151 | 0.00189 | 0.00228 | 0.00276 | 0.00327 | 0.00381 | 0.00447 | 0.00533
in water | 0.000322 | 0.000395 | 0.000498 | 0.0006 | 0.000754 | 0.000924 | 0.00112 | 0.00137 | 0.00161 | 0.00186

Source: BigSolDB 2.1
